Assay results reported in PMC13401508 (Pharmacological research, 2026).
Converted amounts (≈) assume the structure as drawn.

Experiments:
[1] = test system: PC3-ML, ARCaP-M, C4–2B, RM1-BM and TRAMP-C2 cells; test: Boyden chamber / Transwell Matrigel invasion assay; assay type: cell-based, human and murine; details: 25 μM, 18 hrs, all five cell lines
Protocol: Boyden chamber assays were performed using Corning® BioCoat® Matrigel® Invasion Chambers obtained from Corning Inc., USA. In brief, cells were seeded on the Matrigel-coated upper chamber and treated with IVMT-Rx-4. Invaded cells were fixed, stained and counted after 18 hrs. as previously described.
Fig. 1. Primary characterization of IVMT-Rx-4. A) Chemical structure (upper panel) and synthesis scheme (lower panel). […] All proteins were extracted, and Western blotting was performed immediately after heating. Quantifications were obtained in the absence (control) or presence of IVMT-Rx-4 and values are presented as percentage of RT (room temperature) normalized for the experimental groups (control, IVMT-Rx-4). SOD (Superoxide dismutase) was used as an endogenous control. […] Colonies were stained with crystal violet and counted (n = 3 ± SD; ns: non-significant). […] Invaded cells were stained with crystal violet. Top panel: representative photograph of invaded cells under different experimental settings. Bottom panel: graphical representation of number of invaded cells/field for different cell lines (n = 3 ± SD; * p < 0.05).

[2] = Thermodynamic solubility in PBS, pH 7.4; assay type: physicochemical
[3] = Log D by shake flask (pH 7.4); assay type: physicochemical; details: pH 7.4, octanol/phosphate buffer
Protocol: Sodium Phosphate buffer pH 7.4 (10 mM) was used as the aqueous phase and octanol was used as the organic phase. […] The sealed plate was incubated at 25 °C with continuous agitation at 2000 rpm for 2 hrs. Samples were then separated by centrifugation, diluted 100-fold with a mixture of H20 and acetonitrile containing internal standard, and analyzed via LC-MS/MS. The Log D value was calculated using the following equation: […]

Caco-2 cell monolayer = test: Caco-2 bidirectional permeability; assay type: in vitro ADME; details: 10 µM
Protocol: To prepare the Caco-2 cell monolayer, 50 µL and 25 µL of cell culture medium (Dulbecco’s modified Eagle’s medium, DMEM) were added to each well of the inserts and reservoir, respectively, within a 96-well HTS Transwell plate (Corning, NY, USA). The plate was incubated at 37 °C and 5% CO2 for 1 hr. prior to cell seeding. Caco-2 cells were then diluted to 6.86 x 10^5 cells/mL using culture medium and 50 µL of cell suspension were seeded into the plate, and incubated at 37 °C, 5% CO2, and 95% relative humidity for 14-18 days. During this time, the cells were cultivated with media replacements occurring every other day. Cells were allowed to grow and differentiate and the integrity of the Caco-2 cell monolayer was evaluated by measurement of transepithelial electrical resistance (TEER) using a Millicell Epithelial Volt-Ohm measuring system (Millipore, USA).
Prior to the assay, the established monolayer was washed twice with pre-warmed HBSS and incubated at 37 °C for 30 minutes. A bidirectional permeability assay was performed simultaneously using two different plates as described previously (Supplementary Reference: Cui Y, Desevaux C, Truebenbach I, Sieger P, Klinder K, Long A, Sauer A. A Bidirectional Permeability Assay for beyond Rule of 5 Compounds. Pharmaceutics. 2021 Jul 27;13(8):1146. doi: 10.3390/pharmaceutics13081146. PMID: 34452112; PMCID: PMC8400635.): one assessed permeability from the apical to the basolateral side, while the other assessed from the basolateral to the apical side. […] For apical to basolateral permeability, 108 µL of working solution was loaded into the apical compartment, whereas 308 µL of working solution was added to the basolateral compartment for basolateral to apical permeability. The samples collected from donor and receiver compartment were mixed with 72 µL transport buffer and 240 µL of acetonitrile containing internal standard (IS, 100 nM alprazolam, 200 nM Caffeine and 100 nM tolbutamide), centrifuged at 1000 rpm for 10 minutes. […] In doing so, the following equations were used: […]
Where, Papp is apparent permeability (cm/s x 10^-6), dQ/dt is the rate of drug transport (pmol/second), A is the surface area of the membrane (cm^2), and D0 is the initial donor concentration (nM; pmol/cm^3). (B-A) indicates basolateral to apical permeation, where (A-B) indicates apical to basolateral.

CYP3A4 = biological target: T1, CYP3A4 (Homo sapiens, UniProt P08684); test: Drug-substrate based CYP inhibition, 3A4; assay type: in vitro ADME; details: human liver microsomes
T1 construct: in the presence of human liver microsomes; from tissue; host or cells: human liver microsomes
Protocol: IVMT-Rx-4 was incubated with selective probe substrates of each CYP isoform in the presence of human liver microsomes. The formation of metabolite was quantified using LC-MS/MS methods. The extent of inhibition was assessed by calculating the remaining enzyme activity and percent inhibition based on analyte-to-internal standard area ratios, using the following equations:
Area Ratio = Peak AreaAnalyte / Peak AreaInternal Standard
Remaining Activity (%) = Area Ratiotest compound / Area Ratiovehicle ×100
Inhibition (%) = 100 ̶ Remaining Activity (%)

[4] = Solubility study in bio-relevant media, buffers and solvents; assay type: physicochemical
PDGF-AA = PDGF-AA protein in conditioned media by ELISA; assay type: cell-based, human; details: conditioned media of PC3-ML, ARCaP-M and C4–2B cells
Protocol: (§1) Human and mouse specific CXCL5, PDGF-AA ELISA kits were obtained from R&D Systems, USA. All ELISAs were performed using the manufacturer’s protocol.
Fig. 2. […] NF-κB activity was measured by absorbance at 450 nm (n = 3 ± SD; * p < 0.05). […] C) PDGF-AA protein levels were determined in the three PC cell line-derived conditioned media by ELISA. In both panels: n = 3 ± SD; * p < 0.05.

CXCL5 = test: Secreted CXCL5 by ELISA in HS5 conditioned media; assay type: cell-based, human; details: PDGF-AA activated HS5 cells, 24 hrs
Protocol: as §1
Fig. 3. […] CXCL5 mRNA expression was measured by qRT-PCR. […] Secreted CXCL5 in CM was measured by ELISA (n = 3 ± SD; * p < 0.05). […] CXCL5 mRNA expression was measured by qRT-PCR (n = 3 ± SD; * p < 0.05).

[5] = Visible toxicity in animals; details: in vivo

T1 sequence (P08684 whole entry): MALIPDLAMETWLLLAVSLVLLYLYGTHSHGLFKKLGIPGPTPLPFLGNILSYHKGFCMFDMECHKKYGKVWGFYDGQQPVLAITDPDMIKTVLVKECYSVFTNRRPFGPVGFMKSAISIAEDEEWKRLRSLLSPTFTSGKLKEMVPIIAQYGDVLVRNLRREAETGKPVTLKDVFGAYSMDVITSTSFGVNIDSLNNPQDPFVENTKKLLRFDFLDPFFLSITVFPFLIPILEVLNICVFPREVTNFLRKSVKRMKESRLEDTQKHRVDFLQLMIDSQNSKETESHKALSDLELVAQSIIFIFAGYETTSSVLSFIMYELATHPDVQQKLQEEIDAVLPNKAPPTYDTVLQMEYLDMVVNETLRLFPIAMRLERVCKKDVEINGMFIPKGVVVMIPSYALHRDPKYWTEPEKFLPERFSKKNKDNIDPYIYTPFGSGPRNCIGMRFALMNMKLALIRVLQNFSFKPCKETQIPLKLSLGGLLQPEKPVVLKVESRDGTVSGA

Cc1cc(NC(=O)CCc2nnc(-c3ccccc3)o2)c(C)cc1N [IVMT-Rx-4]
cellular invasion [1]: effectively suppressed cellular invasion | Thermodynamic solubility in PBS, pH 7.4 [2]: ~160 mg/ML | solubility thermodynamic ([2]; pH 7.4, aqueous buffer, thermodynamic from solid): 160 mg/mL (≈ 476 mM) | logD at 2 h [3]: 1.49 | Caco-2 Bidirectional A-B (Caco-2 cell monolayer; apical to basolateral): 21.5 ×10⁻⁶ cm/s | Caco-2 Bidirectional B-A (Caco-2 cell monolayer; basolateral to apical): 19.9 ×10⁻⁶ cm/s | IC50 (CYP3A4): ~10 µM | solubility in FaSSIF, FeSSIF and SIF ([4]; FaSSIF, FeSSIF and SIF): low solubility | solubility in organic solvents ([4]; MeOH, EtOH, CH2Cl2, Acetone and MeCN): relatively good solubility | solubility in SGF ([4]; SGF): relative high solubility | stability in SGF and pH 1.2 buffer ([4]; after the solubility test, both media): degradation was observed | solubility in hexane ([4]; hexane): almost insoluble | pH dependence of solubility ([4]; solubility increased with a decrease of pH): pH dependent | solubility in water ([4]; water): low solubility | PDGF-AA protein level (PDGF-AA): decreased PDGF-AA | CXCL5 protein level (CXCL5): significantly decreased | visible toxicity in animals [5]: without provoking any visible toxicity
